Laboratory results: the supplement of paper PMC11368000

Columns and labels:
Settings in all cases: exposure time: 90 min
[1] = tested on: 1516 (donor line of iPSC-derived cardiomyocytes); experiment: POD (EC05) for decrease in beat frequency (negative chronotrope) vs vehicle; higher = less potent (higher point of departure)
Procedure: (§1)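 Human iPSC-derived cardiomyocytes from 16 donors were exposed for 90 min at 37 °C to each PFAS at 0.1, 1, 10 and 100 µM in 0.5% DMSO, 384-well plates. Kinetic Ca2+ flux (FLIPR) and Hoechst nuclei counts were normalised to vehicle wells and fitted with a hierarchical Bayesian Hill model to give donor-specific PODs: EC05 for beat-rate increase or decrease and for decay-to-rise ratio increase (QT proxy), EC95 for peak-frequency loss (asystole), EC10 for total cell number loss. 0.03 µM is the lower bound.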

[2] = tested on: 1531 (donor line of iPSC-derived cardiomyocytes); experiment: as above
Procedure: as §1

[3] = tested on: 1535 (donor line of iPSC-derived cardiomyocytes); experiment: as above
Procedure: as §1

[4] = tested on: 1518 (donor line of iPSC-derived cardiomyocytes); experiment: as above
Procedure: as §1

[5] = tested on: 1118 (donor line of iPSC-derived cardiomyocytes); experiment: as above
Procedure: as §1

[6] = tested on: 20032 (donor line of iPSC-derived cardiomyocytes); experiment: as above
Procedure: as §1

[7] = tested on: 11235 (donor line of iPSC-derived cardiomyocytes); experiment: as above
Procedure: as §1

[8] = tested on: 1368 (donor line of iPSC-derived cardiomyocytes); experiment: as above
Procedure: as §1

[9] = tested on: 30171 (donor line of iPSC-derived cardiomyocytes); experiment: as above
Procedure: as §1

[10] = tested on: 1309 (donor line of iPSC-derived cardiomyocytes); experiment: as above
Procedure: as §1

[11] = tested on: 30145 (donor line of iPSC-derived cardiomyocytes); experiment: as above
Procedure: as §1

[12] = tested on: 1565 (donor line of iPSC-derived cardiomyocytes); experiment: as above
Procedure: as §1

[13] = tested on: 20084 (donor line of iPSC-derived cardiomyocytes); experiment: as above
Procedure: as §1

[14] = tested on: 1516; experiment: POD (EC95) for loss of peak frequency (asystole) vs vehicle; higher = less potent (higher point of departure)
Outline: (§2)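 Ca2+ flux in human iPSC-derived cardiomyocytes from 16 donors was recorded on a FLIPR Tetra for 100 s before and after a 90 min exposure at 37 °C to 0.1, 1, 10 and 100 µM (final, 0.5% DMSO). Donor-specific points of departure came from hierarchical Bayesian Hill fits to vehicle-normalised beat frequency, decay-to-rise ratio or peak frequency. A 5% change served as threshold, except for peak frequency, where it was a 95% loss.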

[15] = tested on: 1531; experiment: as above
Outline: as §2

[16] = tested on: 1518; experiment: as above
Outline: as §2

[17] = tested on: 1118; experiment: as above
Outline: as §2

[18] = tested on: 1392 (donor line of iPSC-derived cardiomyocytes); experiment: as above
Outline: as §2

[19] = tested on: 1309; experiment: as above
Outline: as §2

[20] = tested on: 1565; experiment: as above
Outline: as §2

Measured: POD vs vehicle

NC(=O)C(F)(F)C(F)(F)C(F)(F)C(F)(F)C(F)(F)C(F)(F)C(F)(F)F [Perfluorooctanamide]
> 100 µM: all assays above

OCC(F)(F)C(F)(F)C(F)(F)CO [Hexafluoroamylene_glycol]
> 100 µM: all assays above

CC(O)C(F)(F)C(F)(F)F (stereo not given) [1-Pentafluoroethylethanol]
> 100 µM: all assays above

NC(=O)C(F)(F)C(F)(F)C(F)(F)C(F)(F)C(N)=O [Octafluoroadipamide]
> 100 µM: all assays above

O=C(O)C(F)(F)OC(F)(F)C(F)(F)OC(F)(F)F [Perfluoro-3,6-dioxaheptanoic_acid]
> 100 µM: all assays above
